PubChem BioAssay (NCI)
Values joined by “and” are separate entries in the source; they are usually repeats but may differ in a detail not shown here. Identical values can stand only once.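 Briefly, cells in 96-well plates were exposed to five compound concentrations for 48 h, and endpoints were estimated by linear interpolation. At the GI50, growth is halved. TGI: concentration producing complete growth inhibition.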

Tests used:
Assay in all cases: NCI tumour cell line growth inhibition, 48 h
[1] = test system: M19-MEL melanoma
[2] = test system: XF 498 CNS
[3] = test system: DMS 114 small cell lung
[4] = test system: HOP-18 NSCLC
[5] = test system: RXF-631 renal
[6] = test system: P388 leukemia
[7] = test system: P388/ADR leukemia
[8] = test system: SN12K1 renal

| Compound | TGI [1] | TGI [2] | TGI [3] | TGI [4] | TGI [5] | TGI [6] | TGI [7] | TGI [8] | GI50 [3] | GI50 [1] |
| --- | --- | --- | --- | --- | --- | --- | --- | --- | --- | --- |
| Cc1ccc(C(=O)N(C(C)C)C(C)C)cc1N=NN(C)C | > 100 µM | – | – | – | – | – | – | – | – | – |
| CN1CCn2c(Br)ccc2C1=O | > 100 µM | > 100 µM | – | – | – | – | – | – | – | – |
| O=c1[nH]c(=O)n(C2OC(COP(=O)(O)OP(=O)(O)O)C(O)C2O)cc1F (configuration not stated) | > 50 µM | > 50 µM | > 50 µM | > 50 µM | – | – | – | – | – | – |
| C/C(=N\NC(N)=O)C(CN1CCCCC1)C(c1ccccc1)c1c(O)c2ccccc2oc1=O (configuration not stated) | > 100 µM | – | > 100 µM | > 100 µM | > 100 µM | – | – | – | – | – |
| CCOC(=O)C(C)(C)Oc1ccc2c(=O)cc(-c3ccccc3)oc2c1 | 41.5 µM | – | 44 µM | 54.3 µM | – | – | – | – | – | – |
| COc1cccc(NC(=O)CSc2nnc(-c3ccc(N=Cc4ccc(Cl)cc4)cc3)o2)c1 | 60.8 µM | 37.7 µM | 46.9 µM | > 100 µM | – | – | – | – | – | – |
| COc1cc([C@@H]2c3cc4c(cc3[C@@H](NC(=O)c3ccc(N)cc3)C3COC(=O)[C@@H]32)OCO4)cc(OC)c1O (some centres not stated) | > 100 µM | – | 9.71 µM | > 100 µM | – | – | – | – | – | – |
| NC(Cc1cc(I)c(O)c(I)c1)C(=O)O (configuration not stated) | > 393 µM | > 500 µM | > 293 µM | > 500 µM | – | 160 µM | > 364 µM | 246 µM | – | – |
| CCOc1ccc2[nH]c3c(C)c4cc[n+](C)cc4c(C)c3c2c1 | 2.27 µM and 4.23 µM | – | 2.74 µM and 4.7 µM | 33.6 µM and 49.2 µM | – | – | – | – | 0.48 µM and 1.24 µM | 0.557 µM and 1.5 µM |
| Cc1nc(C)c(C(=O)Nc2cccc3c2C(=O)NC3=O)cc1C(=O)Nc1cccc2c1C(=O)NC2=O | > 100 µM | > 100 µM | > 100 µM | > 100 µM | – | – | – | – | – | – |
| CC1=CC(O)C(O)C2(C)C1CC1OC(=O)C(O)C3C(C)C(O)C4(O)OCC13C42 (configuration not stated) | 394 µM | 311 µM | 157 µM | > 625 µM | – | > 625 µM | > 625 µM | 150 µM | – | – |
| Cc1ccc2nc3c(C)c(Cl)c(=O)cc-3sc2c1 | 12.9 µM | 32.5 µM | 12.9 µM | 75.8 µM | 91.3 µM | – | – | – | – | – |
| COc1ccc(/C=C2\Cc3ccccc3C2=O)cc1OC | > 100 µM | > 100 µM | > 100 µM | – | – | – | – | – | – | – |
| O=S1(=O)NNC(=NCc2ccc(Cl)cc2)c2ccccc21 | > 100 µM | > 100 µM | > 100 µM | – | > 100 µM | – | – | – | – | – |
| CC(C)(C)N=C1CC(C)(C)c2ccccc2C(=Nc2ccccc2)S1 | > 100 µM | 45.5 µM | 83.4 µM | – | – | – | – | – | – | – |
| CCCCc1c2c(nc3c1CCc1cc4c(nc1-3)-c1nc3c(c(CCCC)c1CC4)CCC/C3=C\c1ccccc1)/C(=C/c1ccccc1)CCC2 | > 100 µM | 66.6 µM | > 100 µM | – | – | – | – | – | – | – |
